Data set [1] deals with Replicase polyprotein 1ab (Severe acute respiratory syndrome coronavirus 2) (UniProt P0DTD1). The data set is described as follows: Inhibition of recombinant SARS-CoV-2 PLpro using TLKGGI-AMC as substrate assessed as assessed as inhibition constant ny measuring fluorescence signal at 10 uM measured after 15 mins relative to control.
The target in data set [2] is Replicase polyprotein 1ab (Severe acute respiratory syndrome coronavirus 2, UniProt P0DTD1). The data set is described as follows: Inhibition of recombinant SARS-CoV-2 PLpro using TLKGGI-AMC as substrate assessed as assessed as inhibition constant ny measuring fluorescence signal measured after 15 mins.
Data set [3] concerns the target Chymotrypsin (Homo sapiens) (UniProt Q99895+P17538+P40313+Q6GPI1). The data set is described as follows: Inhibition of Chymotrypsin (unknown origin) assessed as BSA digestion. The class given is protein assay.
Data set [4] in a line: Cytotoxicity against African green monkey Vero E6 cells assessed as cell viability at 100 uM measured after 48 hrs by MTT assay relative to control. The class given is toxicity, cell-based, Vero C1008. As to conditions: chlorocebus sabaeus, read-out: Activity.
For data set [5], the system named is SARS-CoV-2. The data set is described as follows: Antiviral activity against SARS-CoV-2 infected in African green monkey Vero E6 cells assessed as viral reduction by measuring viral RNA measured up to 72 hrs by RT-PCR analysis. The class given is functional, organism-based. As to conditions: Severe acute respiratory syndrome coronavirus 2, SARS-CoV-2, Vero C1008, 72 h.

A short description of data set [6]: Cytotoxicity against human HEK293 cells assessed as cell viability measured after 48 hrs by MTT assay. The class given is toxicity, cell-based.
Data set [7] has as its target Replicase polyprotein 1ab (Severe acute respiratory syndrome coronavirus 2) (UniProt P0DTD1). The data set is described as follows: Binding affinity to SARS-CoV-2 PLpro assessed as thermal stability by measuring melting temperature of half of the proteins unfolded by differential scanning fluorimetry (DSF) (reference value: 45.79 degC).
For data set [8], the system named is SARS-CoV-2. The experiment in a line: Antiviral activity against SARS-CoV-2 infected in African green monkey Vero E6 cells assessed as viral load reduction at 4 uM by measuring viral RNA measured up to 72 hrs by RT-PCR analysis relative to control. The class given is functional, Severe acute respiratory syndrome coronavirus 2, Vero C1008. Details: scale not given: the % may be the effect or the level left.

The structures appear in SMILES notation. Calls of active or inactive are those of the source. No cut-off for these calls is given here.

In the case of `Cc1ccc(C(=O)NNc2nc(-c3ccc(Br)cc3)cs2)cc1`, the inhibition in data set [1] was below 50%. In data set [2], the Ki entry is given as “Not_active”.

As to `CCOC(=O)c1sc(NNC(=O)c2ccc(F)cc2)nc1C`, in data set [1], the inhibition was below 50%. The Ki result in data set [2] was “Not_active”.

With `Clc1nc2ccccc2cc1/C=N/Nc1nc(-c2ccccc2)cs1`, the inhibition in data set [1] was below 50%. Besides, in data set [2], the Ki result is reported as “Not_active”.

As for `CCOC(=O)c1sc(NNC(=O)c2ccc3ccccc3c2)nc1C`, the Ki in data set [2] (read-out: Ki) turned out to be 660 nM.

As for `O=C(NNc1ncc(-c2ccc(Cl)cc2)s1)c1ccc2ccccc2c1`, in data set [2] (read-out: Ki), the Ki turned out to be 2130 nM.

On to `O=C(NNc1ncc(-c2ccc(Cl)cc2)s1)c1cccc(Cl)c1`, for which the Ki in data set [2] (read-out: Ki) came out at 4230 nM.

Consider `O=C(NNc1nc(-c2ccc(Br)cc2)cs1)c1ccc([N+](=O)[O-])cc1`, for which, in data set [3], the inhibition entry was “inactive”. Moreover, the viability at 48 h, 100 µM in data set [4] is 99.5%. In data set [2] (read-out: Ki), the Ki came out at 4220 nM.

In the case of `CCOC(=O)c1sc(NNC(=O)c2ccccc2OC)nc1C`, the Ki result in data set [2] is on record as “Not_active”.

Regarding `O=C(NNc1nc(-c2ccc(Cl)cc2)cs1)c1ccc(F)cc1`, in the data set with SARS-CoV-2 [5], the EC50 was 41 nM. In addition, the IC50 at 48 h in data set [6] was 41200 nM. Moreover, the Tm in data set [7] was 47.1 °C. Besides, in data set [4], the viability at 48 h, 100 µM is 86.5%. Moreover, in data set [2] (read-out: Ki), the Ki is 180 nM. Besides, the Activity with SARS-CoV-2 [8] is listed as above 80%.

Regarding `O=C(NNc1nc(-c2ccc(Br)cc2)cs1)c1ccc(Br)cc1`, the inhibition in data set [1] was below 50%. The Ki result in data set [2] is “Not_active”.

Turning to `Cc1ccc(C(=O)NNc2nc(-c3ccc(C)cc3)cs2)cc1`, the inhibition in data set [1] is below 50%. For the same compound, the Ki result in data set [2] is recorded as “Not_active”.

For `Cc1ccc(-c2csc(NNC(=O)c3ccc(Cl)cc3)n2)cc1`, the inhibition in data set [1] was below 50%. Also, in data set [2], the Ki result is “Not_active”.

On to `CCOC(=O)c1sc(N/N=C/c2cc3ccccc3nc2Cl)nc1C`, for which, in data set [2], the Ki entry is recorded as “Not_active”.

As to `CCOC(=O)c1sc(NNC(=O)c2ccco2)nc1C`, in data set [1], the inhibition is below 50%. The Ki result in data set [2] is reported as “Not_active”.

With `O=C(NNc1nc(-c2ccc(Cl)cc2)cs1)c1ccc(Cl)cc1`, in the data set on SARS-CoV-2 [5], the EC50 was determined as 64 nM. Moreover, in data set [6], the IC50 at 48 h is 14000 nM. Further, the Tm in data set [7] came out at 47.5 °C. The viability at 48 h, 100 µM in data set [4] is 87%. Also, the Ki in data set [2] (read-out: Ki) worked out at 500 nM. The Activity in the data set with SARS-CoV-2 [8] was above 80%.

As to `CCOC(=O)c1sc(NNC(=O)c2ccc(C)cc2)nc1C`, the inhibition in data set [1] is below 50%. Besides, the inhibition constant Ki in data set [2] (read-out: Ki) is 230 nM.

On to `Cc1ccc(-c2csc(NNC(=O)c3ccc(Br)cc3)n2)cc1`, for which the inhibition in data set [1] is below 50%. In data set [2], the Ki entry is listed as “Not_active”.

`CCOC(=O)c1sc(NNC(=O)c2ccccc2C)nc1C`: the inhibition in data set [1] is below 50%. The Ki entry in data set [2] is on record as “Not_active”.

`CCOC(=O)c1sc(NNC(=O)c2cccc(Br)c2)nc1C`: in data set [1], the inhibition is below 50%. Besides, the Ki entry in data set [2] is reported as “Not_active”.

As to `O=C(NNc1nc(-c2ccc(Cl)cc2)cs1)c1ccc(Br)cc1`, the inhibition in data set [1] is below 50%. Besides, the Ki entry in data set [2] is on record as “Not_active”.

Consider `COC(=O)c1sc(NNC(=O)c2ccc([N+](=O)[O-])cc2)nc1C`, for which the inhibition in data set [1] was below 50%. Moreover, the Ki result in data set [2] is recorded as “Not_active”.

Consider `CCOC(=O)c1sc(NNC(=O)c2ccccc2)nc1C`, for which the inhibition in data set [1] was below 50%. Also, the inhibition constant Ki entry in data set [2] is reported as “Not_active”.

Consider `CCOC(=O)c1sc(NNC(=O)c2cccc(Cl)c2)nc1C`, for which the inhibition in data set [1] is below 50%. The Ki entry in data set [2] is recorded as “Not_active”.

With `O=C(NNc1nc(-c2ccc(Br)cc2)cs1)c1ccc(Cl)cc1`, the inhibition entry in data set [3] was “inactive”. The viability at 48 h, 100 µM in data set [4] stood at 86.7%. For the same compound, the inhibition constant (Ki) in data set [2] (read-out: Ki) amounted to 1720 nM.

Turning to `O=C(NNc1nc(-c2ccc(Br)cc2)cs1)c1ccccc1`, in data set [1], the inhibition was below 50%. The Ki entry in data set [2] was “Not_active”.
